Laboratory results from patent publication US6280760A, “Peptide-coated implants and methods for producing same” (Merck Patent Gesellschaft mit beschraenkter Haftung, priority 1997, dated 2001).

What was measured:
MC3T3 H1 osteoblasts [1] = test: Adhesion of MC3T3 H1 osteoblasts to PMMA moulded articles coated with acrylate RGD peptides; type: cell-based, mouse
Description: For the covalent coupling of these peptides to polymerized PMMA (polymethyl methacrylate) surfaces, appropriate shaped articles of differing porosity (diameter: 10 mm; height: 2 mm) were prepared from three different PMMA components.
Bone cement based on PMMA (Merck KGaA, Germany, Licence No. 5181.00.00) corresponding to the product description (40 g of powder+20 ml of liquid).
10 g of PMMA/PHEMA (polyhydroxyethyl methacrylate) granules, particle size 0.5-0.6 mm (Biomet) were mixed with 1.3 ml of an HEMA solution (68.6% HEMA, 29.4% TEGMA [triethylene glycol dimethacrylate], 2% tBPB, [tert-butyl peroxybenzoate]) and adhered by means of this to a porous support material.
10 g of PMMA granules (Plex Y7H, Rohm, Germany), particle fraction 0.7-2 mm were mixed with 1.5 ml of a methyl methacrylate (MMA) solution (68.6% MMA, 29.4% TEGMA, 2% tBPB) and adhered by this means to a porous support material.
For the covalent coupling of the acrylate peptides to the prepolymerized PMMA moulded articles, stock solutions of the acrylate peptides 1, 2, 3 and 4 were prepared in a final concentration of 100 μM in each case in DMSO/0.2% camphorquinone (w/v). Then, by dilution with isopropanol/0.2% camphorquinone (w/v), concentration series having final peptide concentrations of 0.1 nM, 1 nM, 10 nM, 100 nM, 1 μM and 10 μM in each case were prepared. The moulded articles were incubated in daylight and at room temperature for 2 hours and then stored at 4° C. in the dry state. Before use, the samples were washed with PBS, pH 7.4, to remove unbound peptides and stored at 4° C. in PBS, pH 7.4, overnight.
By addition of 250 μl/moulded article each of a 5% strength BSA solution in PBS, pH 7.4, and subsequent incubation for 2 hours at room temperature and washing once with PBS, pH 7.4, non-specific cell-binding sites were blocked.
Subsequently, the adhesion of osteoblasts of the MC3T3 H1 line, obtained from the calvaria of neonatal mice (Heermeier et al., 1995, Cells and Materials 5: 309-321) to the above-described peptide-coated surfaces was investigated.
The MC3T3 H1 osteoblasts were inoculated at an inoculation density of 48,000 cells/cm^2, as described above, in Costar 48-well plates, with PMMA moulded articles coated with RGD peptide and then incubated for 1 hour at 37° C., 95% atmospheric humidity and 5% CO2. Cells non-adhered during the experiment were then washed off twice with PBS, pH 7.4.
The quantification of the adhered cells was carried out indirectly via the activity determination of the cellular enzyme N-acetylhexosaminidase using an appropriate standard curve according to the method of Landegren (1984, J. Immunol. Methods, 67: 379-388).

MC3T3 H1 osteoblasts [2] = test: Proliferation of MC3T3 H1 osteoblasts on RGD peptide-coated PMMA bone cement shaped articles (WST-1 test); type: cell-based, mouse
Text: For the covalent coupling of acrylate peptide 3, type iiia, to polymerized PMMA bone cement shaped articles, a coating process which was described in Example 3 was selected.
MC3T3 H1 mouse osteoblasts were then adhered to these RGD peptide-coated bone cement shaped articles as likewise described in Example 3, but with two differences: 12,000 cells/cm^2 instead of 48,000 cells/cm^2 were inoculated and the adhesion time was two hours instead of one hour. Additionally, only three different peptide concentrations were investigated in the coating solution: 0.01 μM, 1 μM and 100 μM.
After washing off non-adherent cells, the MC3T3 H1 osteoblasts were cultured under 95% atmospheric humidity and 5% CO2 at 37° C. in serum-containing (10%) culture medium for a period of 15 days. During the course of this, the medium was changed twice per week and after 1, 2, 3, 4, 5, 10 and 15 days the cell count was determined by means of the WST-1 test by Boehringer Mannheim, Germany. In each case a typical exponential course of the cell proliferation of the cultured osteoblasts was seen here (FIG. 13). The maximally achieved cell count was directly dependent on the RGD peptide concentration in the coating solution. Thus after 15 culturing days per cm^2, about 1,000,000 cells (100 μM peptide), about 550,000 cells (1 μM peptide), about 300,000 cells (0.01 μM peptide) or about 230,000 cells were achieved (control without peptide). At the highest peptide concentration of 100 μM, an approximately 4- to 5-fold increase in the cell proliferation in comparison with uncoated samples was thus observed.

MC3T3 H1 osteoblasts [3] = test: Adhesion of MC3T3 H1 osteoblasts to PMMA bone cement shaped articles coated with cell-selective acrylate peptides; type: cell-based, mouse; conditions: for cell adhesion, calculated Abs (405 nm), osteoblasts: first part experiment
Text: (§1) The model used for material coating with RGD peptides of different cell selectivity to obtain implants having locally differentiated bioactive coating patterns which should stimulate the adhesion of different cell species was polymerized PMMA bone cement shaped articles. To these were covalently coupled two RGD peptides of different cell selectivity. In this case acrylate peptide 3, type iiia, having a selectivity for alphav beta3 -/alphav beta5 -integrin-bearing osteoblasts, and acrylate peptide 5, type iiia, having a selectivity for […] -positive platelets were bonded to the PMMA shaped articles as described for Example 3.
(§2) a. In the first part experiment, PMMA shaped articles were coated with the acrylate peptides 3 and 5 in concentrations in the coating solution of 100 μM, 10 μM and 1 μM in each case. These RGD peptide-coated materials were then inoculated in parallel with osteoblasts and platelets and their cell adhesion was determined.
(§3) MC3T3 H1 osteoblasts (350,000 cells/cm^2) and human platelets (50 million cells/cm^2) were in each case inoculated in parallel both onto acrylate peptide 3- and acrylate peptide 5-coated PMMA shaped articles and their cell adhesion was determined as described in Example 3.
(§4) b. In the second part experiment, PMMA shaped articles were likewise coated with the acrylate peptides 3 and 5, but only in a concentration in the coating solution of 100 μM in each case. These RGD peptide-coated materials were then inoculated in parallel with osteoblasts, platelets or an osteoblast/platelet mixture and their cell adhesion was determined. MC3T3 H1 osteoblasts (350,000 cells/cm^2), human platelets (50 million cell/cm^2) and a cell mixture (350,000 osteoblasts/cm^2 […] 50 million platelets/cm^2) were in each case inoculated in parallel both onto acrylate peptide 3- and acrylate peptide 5-coated PMMA shaped articles and their cell adhesion was determined as described in Example 3.

human platelets = test: Adhesion of human platelets to PMMA bone cement shaped articles coated with cell-selective acrylate peptides; type: cell-based; conditions: for cell adhesion, calculated Abs (405 nm), platelets: first part experiment
Text: as §1, §2, §3
Human platelets were prepared following the process of Shattil and Brass (J. Biol. Chem. 262:992-1000, 1987).
as §4

[4] = system: osteoblasts/platelets mixture; test: Adhesion of an osteoblast/platelet mixture to PMMA bone cement shaped articles coated with cell-selective acrylate peptides; type: cell-based, mouse, human; conditions: second part experiment; 100 μM peptide in the coating solution
Description: as §4

[5] = 1 μM peptide in the coating solution
[6] = 100 μM peptide in the coating solution
[7] = 10 μM peptide in the coating solution
[8] = second part experiment, 100 μM peptide in the coating solution

EC50 (MC3T3 H1 osteoblasts [1]; different PMMA moulded articles, read-out: half-maximal cell bindings, RGD peptide concentration in the coating solution): 0.001 to 10 µM
Substance: cyclo(RGDf[acrylic-ahx-tEG-K]) [acrylate peptide 3]
stimulation of cell adhesion (in words) (MC3T3 H1 osteoblasts [1]; PMMA carriers, comparison of anchor lengths): higher activity
cell adsorption rates increased in comparison with uncoated surfaces (MC3T3 H1 osteoblasts [1]; bone cement shaped articles, FIG. 8): 5-15 fold
maximal adsorption rates (MC3T3 H1 osteoblasts [1]; different PMMA moulded articles, 48,000 cells/cm^2, 1 hour): 80-100%
cell adsorption rates increased in comparison with uncoated surfaces (MC3T3 H1 osteoblasts [1]; porous PMMA/PHEMA granule shaped articles, FIG. 9): 2-5 fold
cell adsorption rates increased in comparison with uncoated surfaces (MC3T3 H1 osteoblasts [1]; porous Plex Y7H granule shaped articles, FIG. 10): 2-3 fold
cell count after 15 culturing days per cm^2 (MC3T3 H1 osteoblasts [2]; 0.01 μM peptide in the coating solution): about 300,000 cells
cell count after 15 culturing days per cm^2 (MC3T3 H1 osteoblasts [2]; [5]): about 550,000 cells
cell count after 15 culturing days per cm^2 (MC3T3 H1 osteoblasts [2]; [6]): about 1,000,000 cells
cell adhesion, calculated Abs (405 nm), osteoblasts (MC3T3 H1 osteoblasts [3]; [5]): about 1.8 Abs
cell adhesion, calculated Abs (405 nm), osteoblasts (MC3T3 H1 osteoblasts [3]; [7]): about 2.0 Abs
cell adhesion, calculated Abs (405 nm), osteoblasts (MC3T3 H1 osteoblasts [3]; [6]): about 6.0 Abs
cell adhesion, Abs, osteoblasts alone (MC3T3 H1 osteoblasts [3]; [8]): about 6.0 Abs
cell adhesion, calculated Abs (405 nm), platelets (human platelets; [5]): about 0.2 Abs
cell adhesion, calculated Abs (405 nm), platelets (human platelets; [7]): about 1.5 Abs
cell adhesion, calculated Abs (405 nm), platelets (human platelets; [6]): about 3.0 Abs
cell adhesion, Abs, platelets alone (human platelets; [8]): about 3.0 Abs
cell adhesion, Abs, osteoblasts/platelets inoculated as a mixture [4]: about 6.5 Abs
